Earlier results on one compound are cited in patent publication US20220288013A1, “1,8-CINEOL COATED IMPLANTS” (THE BOARD OF TRUSTEES OF THE LELAND STANFORD JUNIOR …, priority 2019, published 2022).

The structures appear in SMILES notation.

The test system of data set [1] is Wnt11. The following applies: HNSCC cell lines.
Data set [2] relates to WNT/β-catenin pathway. The following applies: permanent HNSCC cell lines.
The subject of data set [3] is head and neck squamous cell carcinoma (HNSCC) cell lines. The note with it: exposure of different cell lines; permanent HNSCC cell lines.

As to `CC12CCC(CC1)C(C)(C)O2` [1,8-cineol, 1,3,3-Trimethyl-2-oxabicyclo[2.2.2]octane], the “expression of Wnt11” value in data set [1] is “reduces expression of Wnt11”. Further, in data set [2], the “activity of the WNT/β-catenin pathway (canonical pathway), especially of Wnt11” value was “decrease the activity of the WNT/β-catenin pathway”. Further, the proliferation entry in data set [3] was “inhibit proliferation”.
